Measurements from US20090214514A1, “GUS3 NEUROPEPTIDES FOR REGULATING HYPOTHALAMIC FUNCTION” (priority 2004, published 2009).
No end group written: not given here.

Assay: Standard 24-hour thirst assay: acute effect of icv GUS3 peptides on food and water intake
Assay type: in vivo, Sprague Dawley rats
Conditions: rats thirsted 24 h, not food deprived, single ICV injection in 5 uL vehicle 15 min before reintroduction of water, intake recorded at 30 min, 60 min, 2 h, 3 h; for effect on food intake: vs vehicle (FIG. 8A); for effect on water intake: vs vehicle (FIG. 8B)
Experimental: Animals are injected with the substances after a 24 hr thirst period and food and water intake is monitored at 30 minutes, 60 minutes, 2 hours, 3 hours, and 24 hours.
Thirty-six regular Sprague Dawley rats (Charles River, Germany) weighing approximately 250 gram at the start of the experiment were used for these experiments. All animals were kept under a 12/12 L/D cycle (lights on at 0300) and in temperature and humidity controlled rooms. The animals were allowed a 5 day acclimatisation period after arrival to the test facility in order to reduce stress effects.
All experiments are conducted in accordance with internationally accepted principles for the care and use of laboratory animals and are approved by the Danish committee for animal research. Under Hypnorm Dormicum (Nomeco A/S, Copenhagen Denmark) anesthesia all animals were stereotaxically equipped with a stainless steel cannula aimed at the lateral ventricle (1 mm caudal and 1.5 mm lateral from bregma and 4 mm depth). During a 7 day recovery period, the rats were handled daily in order to accustom them to the experimental procedure.
The following peptides were ordered from Schafer-N, Copenhagen (see also example 2):
The animals were divided into 4 weight-matched groups prior to the test: • Group 4 Vehicle control (5 μL PBS) • Group 3 GUS3 C (10 ug) icv in 5 uL vehicle • Group 2 GUS3 M (1 ug) icv in 5 uL vehicle • Group 1 GUS3 N (10 ug) icv in 5 uL vehicle
The rats were thirsted but not food deprived twenty-four hours before the experiment. Fifteen minutes prior to reintroduction of water (time=0) the animals received an ICV injection of […] of one of the 3 peptides dissolved in 5 μL vehicle or of vehicle alone. Water and food intake was recorded at time=30 minutes, 60 minutes, 2 hour, 3 hours and 24 hours.
The data are evaluated by relevant statistical analyses (Statview software). Results are presented as mean±SEM (standard error of the mean). Statistical evaluation of the data is carried out using one-way analysis of variance (ANOVA) with appropriate post-hoc analysis between control and treatment groups in cases where statistical significance is established (p<0.05; Scheffe or Bonferoni).

Substance	effect on food intake	effect on water intake
ac-QFLKEGQLAAGTCEIVTLDRDSSQP (Ac-QFLKEGQLAAGTCEIVTLDRDSSQP; listed as Homo sapiens) [GUS3 N]	did not seem to affect	did not seem to affect
TIARQTARCAC (listed as Homo sapiens) [GUS3 M]	did not seem to affect	did not seem to affect
